In ChEMBL document CHEMBL3580594, “Synthesis and biological evaluation of 4-substituted fluoronucleoside analogs for the treatment of hepatitis B virus infection” (J Med Chem, 2015):

Assays:
Assay type in all cases: functional
Duck hepatitis B virus = assay: Antiviral activity against duck Hepatitis B virus infected in duck assessed as inhibition of viral DNA replication in serum at 0.2 mg/kg/day, po treatment initiated at day 10 after infection relative to control; conditions: 240 h
Hepatitis B virus [1] = assay: Antiviral activity against Hepatitis B virus in HepG2.2.15 cells assessed as inhibition of intracellular viral DNA replication at 0.2 uM after 6 days by real-time FQ-PCR analysis; conditions: HepG2 2.2.15, 144 h
Hepatitis B virus [2] = assay: Antiviral activity against Hepatitis B virus in HepG2.2.15 cells assessed as inhibition of intracellular viral DNA replication at 0.2 uM after 9 days by real-time FQ-PCR analysis; conditions: HepG2 2.2.15, 216 h

[N-]=[N+]=N[C@]1(CO)O[C@@H](n2ccc(NC3CC3)nc2=O)[C@@H](F)[C@@H]1O
inhibition in vivo at 0.2 mg/kg/day (Duck hepatitis B virus): 69.5% | inhibition at 0.2 µM (Hepatitis B virus [1]): 31.7% | inhibition at 0.2 µM (Hepatitis B virus [2]): 46.5%
